According to patent US20160368872A1, “COMPOUNDS AND METHODS FOR TREATING CANCERS” (HEALTH RESEARCH, INC., priority 2013, published 2016):
One block for each molecule: values may come before it.

Tests used:
[1] = system: androgen receptor; assay: AR level in cells with inhibited p53 activity; type: cell-based; conditions: MCF7 cells with functionally inactive p53 (R175H, GSE56)
Source text: Also tested was the hypothesis that degradation of androgen receptor in prostate and breast cancer cells may be due to p53 induced accumulation of mdm2, which is also ubiquitin ligase for androgen receptor (FIG. 15). p53 was inactivated in several cell lines using different approaches what led to the blockade of mdm2 accumulation after c52 treatment. However androgen receptor was still degraded in c52 treated cells even in the absence of p53 activation and mdm2 accumulation (FIG. 16).

[2] = system: CWR22R; assay: inhibition of growth of cell lines (IC50 categories); type: cell-based; conditions: Homo sapiens, 22Rv1
Experimental: (§1) This example provides a table (below) of the compounds of the present disclosure and their activity towards four different cell lines (i.e., CWR22R, Hela, PC3, and MDA-MB-231). The IC50 for inhibition of growth is divided into 4 categories: A<1 μM, B 1-5 μM, […], D>20 μM.
(§2) All compounds were tested for toxicity using 4 cells lines, target cells-CWR22R and non-target cells, Hela, PC3 and MDA-MB-231 (FIGS. 1A-F).

[3] = system: Hela; assay: as above; type: cell-based; conditions: Homo sapiens
Experimental: as §1, §2

[4] = system: MDA-MB-231; assay: as above; type: cell-based; conditions: Homo sapiens
Experimental: as §1, §2

[5] = system: PC3; assay: as above; type: cell-based; conditions: Homo sapiens, PC-3
Experimental: as §1, §2

[6] = system: CWR22R cells; type: cell-based
Experimental: as §2
LC50 data of in vitro 72 hours cytotoxicity assay are included in this table for comparison.

[7] = plasma concentration after intravenous and intraperitoneal injections (PK); type: in vivo; conditions: for bioavailability through IP injection: IP versus IV, doses 50-100 mg/kg; for course of plasma concentration: after intravenous and intraperitoneal injections, 50-100 mg/kg
[8] = system: CWR22R cells; assay: toxicity of PLA1055 to CWR22R cells depending on time of incubation (LC90, Alamar Blue); type: cell-based; conditions: incubation 4-8 hours; survival detected at 72 hours
Experimental: FIG. 21. Toxicity of PLA1055 to CWR22R cells in vitro depending on time of incubation. PLA1055 was added to CWR22R in full range of concentrations for the periods of time shown on the right. After that drug containing media were changed for drug free and survival of cells was detected at 72 hours after start of treatment using Alamar Blue assay (Promega).
An in vitro experiment was run to detect the concentration of PLA1055 needed to kill all tumor cells in vitro (LC90) during different periods of time (30 minutes-72 hours, FIG. 21)).

[9] = tissue drug concentrations in mice bearing CWR22R tumors; type: in vivo, SCID mice
Experimental: (§3) We tested these compounds in an in vivo efficacy experiment using model of CRPC in SCID mice, CWR22R. Two compounds, PLA1079 and 1125, which were synthesized in the amount of 500 mg were tested in full scale experiment with either 5 IV daily injections or 10 IP daily injections. After 5 IP or IV injections intra-tumor concentration of the compounds were measured in few mice from this experiment.
Two other compounds, PLA1148 and 1098 (PK testing in FIGS. 8 and 9) were tested in a small scale efficacy experiment. Upon PK testing of the compound PLA1148 one mouse was injected twice with 10 min interval. However the concentration of the drug in plasma of this mouse was not twice, but >4 times higher than in mice injected once. […] It was decided to utilize this observation in an attempt to get higher plasma and tumor concentration of both compounds. Therefore in the pilot efficacy experiment in the same model of CWR22R cells mice were treated with 2 IP injections with 10 minute interval. Treatment with PLA1098 was carried out for two days. […] However this is so far the highest concentration found in tumor. […]

[10] = system: CWR22R tumors; assay: in vivo efficacy, subcutaneous xenografts of CWR22R cells in SCID mice
Experimental: as §3
(§4) Two other compounds, PLA1148 and 1098 (PK testing in FIGS. 8 and 9) were tested in a small scale efficacy experiment. Upon PK testing of the compound PLA1148 one mouse was injected twice with 10 min interval. However the concentration of the drug in plasma of this mouse was not twice, but >4 times higher than in mice injected once. […] It was decided to utilize this observation in an attempt to get higher plasma and tumor concentration of both compounds. Therefore in the pilot efficacy experiment in the same model of CWR22R cells mice were treated with 2 IP injections with 10 minute interval. Treatment with PLA1098 was carried out for two days. […] However this is so far the highest concentration found in tumor.
Pilot efficacy experiments were run for compounds: PLA1163, PLA1148 using the same model of subcutaneous xenografts of CWR22R cells in SCID mice (FIGS. 18 and 19).

[11] = system: Caveolin1; assay: expression of Caveolin1 in sensitive versus resistant cells; type: cell-based; conditions: MDA MB 231 and MCF7 cells
Source text: FIG. 12. Expression of Caveolin1 in sensitive versus resistant cells. Caveolin1 is expressed in resistant MDA MB 231 cells, but not in sensitive MCF7 cells.

[12] = toxicity observed in mice of the pilot efficacy experiments; type: in vivo
Experimental: as §4
This compound may be also potentially promising.

[13] = system: presumable target protein in protein lysates from sensitive CWR22r cells; assay: DARTS (Drug Affinity Responsive Target Stability) assay; conditions: treated vs untreated
Experimental: FIG. 24. DARTS (Drug Affinity Responsive Target Stability) assay was performed using c52 and PLA1118. According to this assay these compounds are capable of protecting presumable target protein from protease degradation. Protein lysates from sensitive CWR22r cells were incubated with or without the drug and subsequently digested with the indicated concentration of pronase. A. c52 was used (lane T-treated, M-marker) with indicated concentrations of pronase; ability of c52 to protect its target from protease cleavage was judged based on presence of protein band in the treated lane vs the untreated (UT) control.

[14] = solubility for in vivo administration; type: physicochemical
[15] = aqueous solubility (pH 7.4); type: physicochemical
[16] = metabolic stability in the presence of mouse liver microsomes; type: in vitro ADME
Experimental: 8 compounds were selected based on the solubility and metabolic stability as well as considering chemical diversity to test for time dependence stability in the presence of mouse […] (FIG. 2). […] Two compounds, PLA1190 and 1197, have desirable metabolic stability, 70 and 77% left after 30 minute incubation with mouse liver microsome respectively. Formulations for in vivo administration were developed for 4 compounds, PLA1079, 1125, 1098 and 1148.

[17] = 5 IV daily injections or 10 IP daily injections
[18] = 24 hours after last injection, 2 IP injections with 10 minute interval, two days
[19] = one mouse at 24 hours after injections
[20] = 2 IP injections with 10 minute interval, one day

IC50 [3]: > 20000 nM
IC50 [4]: > 20000 nM
IC50 [5]: > 20000 nM
Structure (SMILES): O=c1[nH]ccc2c1ccc1c2c2ncccc2n1CCC(F)F [Compound 15-1, 7-(3,3-Difluoropropyl)-3,7-dihydro-3,7,11-triaza-benzo[c]fluoren-4-one]
IC50 [2]: > 20000 nM

solubility [14]: poorly soluble
Structure (SMILES): CCCn1c2ccccc2c2c3cc[nH]c(=O)c3ccc21 [PLA1099]

solubility [14]: poorly soluble
Structure (SMILES): O=c1[nH]ccc2c1ccc1c2c2ccccc2n1CCCF [PLA1121]

Aqueous Solubility Classification [15]: Low
Structure (SMILES): O=c1[nH]ccc2c1ccc1c2c2ncccc2n1CCCF [PLA1181]

Aqueous Solubility Classification [15]: Low
Aqueous Solubility (pH 7.4) [15]: 3.5 μM
left after 30 minute incubation with mouse liver microsome [16]: 70%
Structure (SMILES): O=c1[nH]c2ccc3c(c4ccccc4n3CCCF)c2o1 [PLA1190]

Aqueous Solubility Classification [15]: High
Aqueous Solubility (pH 7.4) [15]: 140 μM
Structure (SMILES): O=c1c2ccc3c(c2ccn1CCN1CCCC1)c1ccccc1n3CCCF [PLA1193]

Aqueous Solubility Classification [15]: Low
Aqueous Solubility (pH 7.4) [15]: 2.7 μM
Structure (SMILES): N#Cc1cccc2c1c1c3cc[nH]c(=O)c3ccc1n2CCCF [PLA1195]

Aqueous Solubility Classification [15]: Low
Aqueous Solubility (pH 7.4) [15]: 2.3 μM
Structure (SMILES): O=C1CCc2c1ccc1c2c2cc(Br)ccc2n1CCCF [PLA1199]

Second part, the molecule before the results:

Structure (SMILES): CC(=O)c1ccc2c(c1)c1cc(C(C)=O)ccc1n2CCNC(C)C [CBL 137, reference compound]
AR level [1]: AR is being degraded

Structure (SMILES): CC(=O)c1ccc2c(c1)c1ccccc1n2CCCF [PLA1055]
CC50 [6]: 40 nM
plasma concentration at 8 hours ([7]; 8 hours, single IV administration of 50 mg/kg (FIG. 20)): below 1 uM
time up to which compound was detected ([7]; single IV administration of 50 mg/kg (FIG. 20)): up to 24 hours
LC90 [8]: 2500 nM

Structure (SMILES): CCCn1c2ccccc2c2cc(-c3nnco3)ccc21 [PLA1079]
CC50 [6]: 120 nM
Tumor concentration ([9]; 100 mg/kg, IP/IV): 24 to 48 nM
bioavailability through IP injection [7]: very high bioavailability
course of plasma concentration [7]: fast reduction of concentration during the first hour
in vivo efficacy [10, 17]: absence of in vivo efficacy
AR level [1]: AR is being degraded
levels of Caveolin1 expression [11]: did not change

Structure (SMILES): CCCn1c2ccccc2c2c3c(ccc21)C(=O)N(C)C3 [PLA1098]
CC50 [6]: 40 nM
Liver ([9]; 100 mg/kg, IP): 0 nM
Tumor concentration ([9]; 100 mg/kg, IP): 23 to 25 nM
Intratumor concentration ([9]; 2 tested tumors at 24 hours after last injection, 2 IP injections with 10 minute interval, two days): 25 nM
compound in liver [9, 18]: no detectable
compound in plasma [9, 18]: no detectable
bioavailability through IP injection [7]: very high bioavailability
course of plasma concentration [7]: fast reduction of concentration during the first hour
tumor volume and tumor weight vs vehicle control ([10]; 2 IP injections with 10 minute interval for two days, tumors excised 12 days after treatment): certain reduction of tumor volume and tumor weigh in the 1098 treated group vs vehicle control, but not statistically significant
in vivo efficacy ([10]; summary statement): evidence of in vivo efficacy
side effects during the treatment ([12]; 2 IP injections with 10 minute interval for two days): no signs of side effects were noticed
signs of toxicity ([12]; summary statement): without any signs of toxicity
protection of target protein band from pronase degradation [13]: protected their targets from degradation

Structure (SMILES): CCCn1c2ccccc2c2cc(S(C)(=O)=O)ccc21 [PLA1118]
protection of target protein band from pronase degradation [13]: faintly

Structure (SMILES): FCCCn1c2ccccc2c2cc(-c3nnco3)ccc21 [PLA1125]
CC50 [6]: 100 nM
Tumor concentration ([9]; 100 mg/kg, IP/IV): 7 to 10 nM
bioavailability through IP injection [7]: very high bioavailability
course of plasma concentration [7]: fast reduction of concentration during the first hour
in vivo efficacy [10, 17]: absence of in vivo efficacy

Structure (SMILES): O=C1NCCc2c1ccc1c2c2ncccc2n1CCCF [PLA1148]
Liver ([9]; 50 mg/kg, IP): 50 nM
Tumor concentration ([9]; 50 mg/kg, IP): 0 to 90 nM
Tumor concentration ([9]; 48 hours after treatment): 84 nM
liver concentration ([9]; 48 hours after treatment): 49 nM
plasma concentration ([9]; mice euthanized at 48 hours after treatment): The same plasma concentration
drug in liver [9, 19]: no drug detected
drug in tumor [9, 19]: no drug detected
plasma concentration [9, 19]: 8.5 nM
bioavailability through IP injection [7]: very high bioavailability
course of plasma concentration [7]: fast reduction of concentration during the first hour
concentration in plasma of mouse injected twice with 10 min interval versus mice injected once ([7]; one mouse injected twice): > 4 times
tumors of mice that died on the 5th day ([10]; two mice, injected only one day): almost undetectable tumors
deaths of mice [12, 20]: 2 mice died next day and 3 other during next 5 days
toxicity after injection [12, 20]: acute toxicity developed quickly after injection, symptoms suggested acute liver failure

Structure (SMILES): O=C1NCCOc2c1ccc1c2c2ccccc2n1CCCF [PLA1163]
CC50 [6]: 200 nM
Liver ([9]; 40 mg/kg, IP): 307 nM
Tumor concentration ([9]; 40 mg/kg, IP): 4 to 10 nM
solubility [14]: poorly soluble

Structure (SMILES): CC(=O)c1ccc2c(c1)c1c(C(N)=O)cccc1n2CCCF [PLA1191]
Aqueous Solubility Classification [15]: High
Aqueous Solubility (pH 7.4) [15]: 130 μM

Structure (SMILES): O=c1c2ccc3c(c2ccn1CCO)c1ccccc1n3CCCF [PLA1192]
Aqueous Solubility Classification [15]: Moderate
Aqueous Solubility (pH 7.4) [15]: 15 μM

Structure (SMILES): CN1Cc2c(ccc3c2c2ccccc2n3CCC(F)F)C1=O [PLA1194]
Aqueous Solubility Classification [15]: Moderate
Aqueous Solubility (pH 7.4) [15]: 18 μM

Structure (SMILES): NC(=O)c1cccc2c1c1c3cc[nH]c(=O)c3ccc1n2CCCF [PLA1196]
Aqueous Solubility Classification [15]: Moderate
Aqueous Solubility (pH 7.4) [15]: 26 μM

Structure (SMILES): O=C1CCc2c1ccc1c2c2c(F)cccc2n1CCCF [PLA1197]
Aqueous Solubility Classification [15]: Low
Aqueous Solubility (pH 7.4) [15]: 4.0 μM
left after 30 minute incubation with mouse liver microsome [16]: 77%

Structure (SMILES): CC(=O)c1ccc2c(c1)c1c3c(ccc1n2CCCF)C(=O)CC3 [PLA1198]
Aqueous Solubility Classification [15]: Low
Aqueous Solubility (pH 7.4) [15]: 2.5 μM
